Where two headings read alike, the source gives them in different places.
Key:
CYP 2C9 = biological target: T1, CYP 2C9 (Homo sapiens, UniProt P11712); assay: Reversible CYP inhibition in human liver microsomes, CYP 2C9; format: in vitro ADME; conditions: diclofenac, read-out: Cyp microsome IC50, 2C9
T1 construct: individual CYPs in a pool of human liver microsomes; from tissue; host or cells: pooled human liver microsomes
Experimental: (§1) Reversible inhibition of cytochrome P450s (CYPs) in human liver microsomes was tested using prototypical, isoform-selective activity assays for individual CYPs in a pool of human liver microsomes (i.e., testosterone for CYP 3A4, phenacetin for CYP 1A2, bufuralol for CYP 2D6, S-mephenytoin for CYP 2C19, and diclofenac for CYP 2C9). The assay provides 8-point IC50 determinations in the range of 0.010 to 50 μM drug concentrations for major isoforms of CYP450.

CYP 2D6 = biological target: T2, CYP 2D6 (Homo sapiens, UniProt P10635); assay: Reversible CYP inhibition in human liver microsomes, CYP 2D6; format: in vitro ADME; conditions: bufuralol, read-out: Cyp microsome IC50, 2D6
T2 construct: individual CYPs in a pool of human liver microsomes; from tissue; host or cells: pooled human liver microsomes
Experimental: as §1

Anopheles = Anopheles membrane feeding assay, EC90 at day 7; format: in vivo; conditions: 168 h
From the text: Isoxazoline compounds fluralaner or afoxolaner were reconstituted in 50% human serum and 50% red blood cells and administered to adult Anopheles stephensi mosquitos via standard membrane feeding. […] FIG. 2A represents a plot of viable Anopheles stephensi versus fluralaner concentration at each day of assessment. FIG. 2B represents a plot of viable Anopheles stephensi versus afoxolaner concentration at each day of assessment. […] The IC50 values of each compound for Anopheles death were determined by logistic regression using a least squares method to find the best fit and are shown in Table 1. IC50 values were calculated by applying a four-parameter logistic regression model using a least-squares method to find the best fit using the Graphpad Prism 5.0 software package.

[1] = Hepatocyte stability assay, rat; format: in vitro ADME; conditions: SD, hepatocytes
Experimental: (§2) Example 7. In Vitro Metabolic Stability of Isoxazoline Compounds in cd-1 Mouse, sd Rat, Beagle Dog, Cynomolgus Monkey and Human Cryopreserved Hepatocytes
(§3) Isoxazoline compounds (at 1 μM) were incubated with cryopreserved hepatocytes (0.5×10^6 cells per mL) in duplicates (n=2) at 37° C. using 96-well plate format.
(§4) Time points were 0, 15, 30, 60 and 90 minutes in separate plates and medium control samples without cells at 0 and 90 minutes were also incubated. At each time point the reaction was stopped by adding organic solution containing internal standard (IS).
(§5) Positive controls 7-ethoxycoumarin and 7-hydroxycoumarin were included in parallel.
(§6) The samples were analyzed by LC-MS/MS. Disappearance of the test compound was assessed based on peak area ratios of analyte/IS (no standard curve).
(§7) Intrinsic clearance and t½ values were then calculated.

[2] = Plasma protein binding (equilibrium dialysis), mouse; format: in vitro ADME; conditions: 2 μM
Experimental: (§8) Frozen plasma (EDTA-K2 as anticoagulant) pooled from multiple individuals of various species was used as a test matrix. The plasma was purchased from commercial vendors or prepared in house from animals. Warfarin was used as a positive control.
(§9) Isoxazoline compounds were spiked into the blank matrix at the final concentration of 2 μM.
(§10) A 150 μL aliquot of matrix sample was added to one side of the chamber in a 96-well equilibrium dialyzer plate (HTD dialysis) and an equal volume of dialysis buffer was added to the other side of the chamber. An aliquot of matrix sample was harvested before the incubation and used as T0 samples for recovery calculation. Triplicate incubations were performed.
(§11) The dialyzer plate was placed in a humidified incubator and rotated slowly for 4 hours at 37° C. After incubation, samples were taken from the matrix side as well as the buffer side. The plasma sample was matched with equal volume of blank buffer; and buffer samples were matched with equal volume of blank plasma. The matrix-matched samples were quenched with a stop solution containing internal standard.
(§12) The samples were analyzed by LC-MS/MS.
(§13) Then, % bound fraction at 4 hours (% bound=1−% unbound) and % recovery in incubates at 4 hours were calculated.
(§14) The stability of compounds in mouse (ms), rat (r), dog (d), cynomolgus monkey (cy), and human (hu) plasma is shown in Table 10 by the percentages of compounds remaining at two hours.

CYP 1A2 = biological target: T3, CYP 1A2 (Homo sapiens, UniProt P05177); assay: Reversible CYP inhibition in human liver microsomes, CYP 1A2; format: in vitro ADME
T3 construct: individual CYPs in a pool of human liver microsomes; from tissue; host or cells: pooled human liver microsomes
T3 sequence (P05177 1-516): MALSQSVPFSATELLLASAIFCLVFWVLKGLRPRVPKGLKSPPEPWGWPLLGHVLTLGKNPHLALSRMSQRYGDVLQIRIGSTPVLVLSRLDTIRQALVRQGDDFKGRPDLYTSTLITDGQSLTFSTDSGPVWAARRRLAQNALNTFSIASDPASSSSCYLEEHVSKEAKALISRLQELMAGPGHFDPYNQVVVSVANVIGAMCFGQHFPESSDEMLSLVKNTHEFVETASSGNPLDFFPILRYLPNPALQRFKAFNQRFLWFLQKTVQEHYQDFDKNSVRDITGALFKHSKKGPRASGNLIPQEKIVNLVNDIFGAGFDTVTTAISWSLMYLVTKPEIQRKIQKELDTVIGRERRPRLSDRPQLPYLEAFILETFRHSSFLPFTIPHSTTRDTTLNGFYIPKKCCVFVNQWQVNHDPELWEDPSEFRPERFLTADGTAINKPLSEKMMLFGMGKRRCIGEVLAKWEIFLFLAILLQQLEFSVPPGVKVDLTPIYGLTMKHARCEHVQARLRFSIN
Experimental: as §1

[3] = Plasma protein binding (equilibrium dialysis), human; format: in vitro ADME; conditions: 2 μM
Experimental: as §8, §9, §10, §11, §12, §13, §14

Solubility at pH 6.8 = format: physicochemical; conditions: pH 6.8, aqueous buffer
[4] = Hepatocyte stability assay, mouse; format: in vitro ADME
Experimental: as §2, §3, §4, §5, §6, §7

[5] = Plasma protein binding (equilibrium dialysis), rat; format: in vitro ADME; conditions: 2 μM
Experimental: as §8, §9, §10, §11, §12, §13, §14

[6] = Hepatocyte stability assay, human; format: in vitro ADME; conditions: hepatocytes
Experimental: as §2, §3, §4, §5, §6, §7

[7] = Hepatocyte stability assay, dog; format: in vitro ADME; conditions: Beagle, hepatocytes
Experimental: as §2, §3, §4, §5, §6, §7

[8] = rat (r), 1 μM, read-out: Hepatocyte stability (t½)
[9] = CD-1, hepatocytes, mouse (ms), 1 μM, read-out: Hepatocyte stability (t½)
[10] = human (hu), 1 μM, read-out: Hepatocyte stability (t½)
[11] = dog (d), 1 μM, read-out: Hepatocyte stability (t½)

T1 sequence (P11712 whole entry): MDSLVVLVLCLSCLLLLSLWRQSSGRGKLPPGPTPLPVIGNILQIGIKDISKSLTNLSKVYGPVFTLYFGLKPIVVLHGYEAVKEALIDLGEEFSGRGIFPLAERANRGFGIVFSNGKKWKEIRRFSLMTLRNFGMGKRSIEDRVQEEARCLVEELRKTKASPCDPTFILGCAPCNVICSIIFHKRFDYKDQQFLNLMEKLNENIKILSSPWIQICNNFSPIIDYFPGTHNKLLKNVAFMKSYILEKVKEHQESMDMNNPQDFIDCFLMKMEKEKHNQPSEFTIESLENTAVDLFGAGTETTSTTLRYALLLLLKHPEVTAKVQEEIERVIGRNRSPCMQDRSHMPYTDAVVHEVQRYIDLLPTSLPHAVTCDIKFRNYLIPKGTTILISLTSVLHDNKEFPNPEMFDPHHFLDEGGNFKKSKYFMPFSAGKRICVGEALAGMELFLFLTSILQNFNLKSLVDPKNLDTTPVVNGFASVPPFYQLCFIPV
T2 sequence (P10635 whole entry): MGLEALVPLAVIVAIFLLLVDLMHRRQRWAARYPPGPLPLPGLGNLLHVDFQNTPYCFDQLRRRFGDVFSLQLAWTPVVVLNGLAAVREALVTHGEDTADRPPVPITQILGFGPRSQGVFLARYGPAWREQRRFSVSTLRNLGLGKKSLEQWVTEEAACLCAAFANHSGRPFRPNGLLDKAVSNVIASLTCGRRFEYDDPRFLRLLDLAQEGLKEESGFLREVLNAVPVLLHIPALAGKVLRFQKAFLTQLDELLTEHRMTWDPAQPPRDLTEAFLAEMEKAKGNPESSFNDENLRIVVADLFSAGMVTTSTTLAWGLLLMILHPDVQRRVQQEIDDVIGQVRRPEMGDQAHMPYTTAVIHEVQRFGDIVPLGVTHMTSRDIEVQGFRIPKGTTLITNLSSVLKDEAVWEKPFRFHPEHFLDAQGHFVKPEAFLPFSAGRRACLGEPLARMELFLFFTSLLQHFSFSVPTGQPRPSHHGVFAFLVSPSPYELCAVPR

SMILES | IC50 (CYP 2C9) [µM] | IC50 (CYP 2D6) [µM] | EC90 (Anopheles) [µM] | half-life at 1 μM [1, 8] [h] | Plasma protein % binding ([2]; mouse (ms), 4 hours) | IC50 (CYP 1A2) [µM] | Plasma protein % binding ([3]; human (hu), 4 hours) | solubility (Solubility at pH 6.8; read-out: Solubility (pH 6.8)) [µM] | half-life at 1 μM [4, 9] [h] | Plasma protein % binding ([5]; rat (r), 4 hours) | half-life at 1 μM [6, 10] [h] | half-life at 1 μM [7, 11] [h] | further results
O=C(CNC(=O)c1ccc(C2=NO[C@@](c3cc(Cl)cc(C(F)(F)F)c3)(C(F)(F)F)C2)c2ccccc12)NCC(F)(F)F [(S)-afoxolaner] | 4.2 | 19 | 0.008 | 1 | >99.9 (ms, r, hu), % | > 50 | >99.9 (ms, r, hu), % | < 1 | 1.07 | >99.9 (ms, r, hu), % | 1.1 | 0.533 | 
O=C(CNC(=O)c1ccc(C2=NO[C@@](c3cc(Cl)cc(Cl)c3)(C(F)(F)F)C2)c2ccccc12)NCC(F)(F)F [(S)-4-(5-(3,5-dichlorophenyl)-5-(trifluoromethyl)-4,5-dihydroisoxazol-3-yl)-N-(2-oxo-2-((2,2,2-trifluoroethyl)amino)ethyl)-1-naphthamide] | 1.9 | 17.2 |  |  |  |  |  |  |  |  |  |  | EC90 (Anopheles; day 7, read-out: EC90): 0.008 µM; half-life at 1 μM ([1]; rat): 1.28 h; Plasma protein % binding ([2]; mouse, 4 h): >99.9% (ms, r, d, hu); IC50 (CYP 1A2; human liver microsomes, phenacetin, read-out: Cyp microsome IC50, 1A2): > 50 µM; Plasma protein % binding ([3]; human, 4 h): >99.9% (ms, r, d, hu); solubility (Solubility at pH 6.8): < 1 µM; half-life at 1 μM ([4]; CD-1, mouse, hepatocytes): 0.983 h; Plasma protein % binding ([5]; rat, 4 h): >99.9% (ms, r, d, hu); half-life at 1 μM ([6]; human): 1.05 h; half-life at 1 μM ([7]; dog): 0.683 h
O=C(CNC(=O)c1ccc(C2=NO[C@](c3cc(Cl)cc(C(F)(F)F)c3)(C(F)(F)F)C2)c2ccccc12)NCC(F)(F)F (racemic) [Afoxolaner, afoxolaner] | 2.9 | > 50 | 0.0081 | > 3.62 | 97.8 (ms), % | > 50 | >99.9 (d, hu) % | < 1 | > 3.62 | 97.3 (r), % | > 3.62 | > 3.62 | 
